From patent publication US12037344B2, “NLRP3 modulators” (INNATE TUMOR IMMUNITY, INC., priority 2018, dated 2024)
Like-named read-outs stand apart in the source and are kept apart here.

Tests used:
TLR8 = target: T1, TLR8 (Homo sapiens, UniProt Q9NR97); test: In vitro human TLR8 binding reporter assay (HEK-Blue, NF-kB/AP1-inducible SEAP); format: cell-based; settings: activity range class, read-out: TLR8 Agonist EC50
T1 construct: human HEK-Blue cells co-expressing a TLR7 or TLR8 gene
T1 sequence (Q9NR97 27-1041): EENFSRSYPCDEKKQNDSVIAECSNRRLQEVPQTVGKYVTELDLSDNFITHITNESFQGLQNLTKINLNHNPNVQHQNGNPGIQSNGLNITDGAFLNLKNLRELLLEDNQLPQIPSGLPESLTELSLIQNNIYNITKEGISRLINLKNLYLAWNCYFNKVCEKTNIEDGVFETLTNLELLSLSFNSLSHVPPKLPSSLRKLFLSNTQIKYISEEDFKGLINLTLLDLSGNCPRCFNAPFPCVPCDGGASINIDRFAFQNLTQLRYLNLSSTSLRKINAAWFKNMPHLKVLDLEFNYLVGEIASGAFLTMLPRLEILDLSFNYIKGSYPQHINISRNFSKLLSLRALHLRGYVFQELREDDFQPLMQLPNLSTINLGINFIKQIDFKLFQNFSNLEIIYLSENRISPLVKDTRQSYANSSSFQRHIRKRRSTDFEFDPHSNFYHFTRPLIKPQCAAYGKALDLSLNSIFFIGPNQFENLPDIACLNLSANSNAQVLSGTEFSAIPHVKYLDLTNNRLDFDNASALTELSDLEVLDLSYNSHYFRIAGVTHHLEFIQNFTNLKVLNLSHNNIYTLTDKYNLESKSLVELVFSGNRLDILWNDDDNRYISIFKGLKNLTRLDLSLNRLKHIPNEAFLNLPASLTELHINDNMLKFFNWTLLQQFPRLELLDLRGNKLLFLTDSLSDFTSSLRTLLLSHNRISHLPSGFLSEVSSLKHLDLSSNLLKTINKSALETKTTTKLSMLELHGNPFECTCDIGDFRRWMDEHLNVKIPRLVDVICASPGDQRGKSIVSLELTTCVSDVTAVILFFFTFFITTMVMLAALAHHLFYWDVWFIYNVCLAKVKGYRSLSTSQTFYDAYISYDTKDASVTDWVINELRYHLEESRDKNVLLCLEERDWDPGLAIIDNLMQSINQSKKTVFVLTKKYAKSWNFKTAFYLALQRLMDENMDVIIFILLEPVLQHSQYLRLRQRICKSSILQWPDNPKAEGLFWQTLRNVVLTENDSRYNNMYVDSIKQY
Procedure, shortened: (§1)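 EC50s come from NF-kB/AP1-driven SEAP secretion in HEK-Blue cells expressing TLR7 or TLR8, measured with Quanti-Blue after an 18 h compound incubation. Maximal response is defined by a 50 μM reference standard.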

THP-1 cells = test: Measurement of IL-1β production, hTRF protocol (second alternative procedure), THP-1 cells; format: cell-based, human; settings: Homo sapiens
Procedure, shortened: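 Compounds, dilution series starting at a final 10 μM, were incubated 2 hours at 37° C with PMA-differentiated THP-1 cells (50 ng/ml overnight; 50,000 cells/well, 2% FBS RPMI). Released IL-1β quantified in supernatant by hTRF kit with 1:40 antibody dilution, 4° C overnight, 665/615 nm ratio.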

TLR7 = target: T2, TLR7 (Homo sapiens, UniProt Q9NYK1); test: In vitro human TLR7 binding reporter assay (HEK-Blue, NF-kB/AP1-inducible SEAP); format: cell-based; settings: activity range class, read-out: TLR7 Agonist EC50
T2 construct: human HEK-Blue cells co-expressing a TLR7 or TLR8 gene
T2 sequence (Q9NYK1 27-1049): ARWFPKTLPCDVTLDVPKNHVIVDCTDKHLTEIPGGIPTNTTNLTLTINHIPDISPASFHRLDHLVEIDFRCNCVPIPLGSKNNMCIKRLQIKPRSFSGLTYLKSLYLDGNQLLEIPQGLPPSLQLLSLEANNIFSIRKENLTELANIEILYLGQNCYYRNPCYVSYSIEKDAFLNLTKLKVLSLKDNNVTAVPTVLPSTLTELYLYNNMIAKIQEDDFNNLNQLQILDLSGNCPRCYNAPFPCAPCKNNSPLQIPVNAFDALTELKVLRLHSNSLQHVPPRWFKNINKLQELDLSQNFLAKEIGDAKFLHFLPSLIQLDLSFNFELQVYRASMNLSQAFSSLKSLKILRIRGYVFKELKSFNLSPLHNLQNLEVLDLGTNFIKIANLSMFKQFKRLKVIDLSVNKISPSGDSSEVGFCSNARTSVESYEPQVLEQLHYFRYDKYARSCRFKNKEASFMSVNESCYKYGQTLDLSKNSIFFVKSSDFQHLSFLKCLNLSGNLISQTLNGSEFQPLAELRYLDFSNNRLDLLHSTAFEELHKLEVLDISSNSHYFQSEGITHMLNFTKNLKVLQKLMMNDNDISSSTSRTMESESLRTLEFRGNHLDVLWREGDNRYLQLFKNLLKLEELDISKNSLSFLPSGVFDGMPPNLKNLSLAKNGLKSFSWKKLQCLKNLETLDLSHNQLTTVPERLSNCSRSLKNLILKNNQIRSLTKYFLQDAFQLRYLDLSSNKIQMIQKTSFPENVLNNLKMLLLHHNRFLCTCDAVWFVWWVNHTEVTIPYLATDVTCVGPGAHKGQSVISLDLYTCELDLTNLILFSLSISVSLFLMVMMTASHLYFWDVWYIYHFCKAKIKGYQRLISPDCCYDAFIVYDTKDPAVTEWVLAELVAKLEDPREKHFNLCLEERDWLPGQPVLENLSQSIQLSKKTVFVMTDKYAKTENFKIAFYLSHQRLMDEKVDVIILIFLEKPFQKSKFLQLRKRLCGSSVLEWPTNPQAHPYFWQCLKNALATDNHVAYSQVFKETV
Procedure, shortened: as §1

[1] = THP-1, IL-1β production, human, read-out: NLRP3 hILIB EC50
[2] = THP-1, read-out: NLRP3 hILIB EC50

| Structure (SMILES) | EC50 (TLR8) | EC50 (THP-1 cells; [1]) | EC50 (TLR7) | EC50 (THP-1 cells; [2]) |
| --- | --- | --- | --- | --- |
| CC(C)(C)OC(=O)NCCn1cc2c(n1)c(N)nc1cc(-c3cccs3)ccc12 [Example 127, tert-butyl N-{2-[4-amino-7-(thiophen-2-yl)-2H-pyrazolo[3,4-c]quinolin-2-yl]ethyl}carbamate] | > 100 µM | 1.05 µM | > 100 µM |  |
| Nc1nc2cc(-c3cccs3)ccc2c2cn(CCNC(=O)c3ccc(F)cn3)nc12 [Example 129] | > 100 µM | 0.7 µM | > 100 µM |  |
| CC(=O)NCCn1cc2c(n1)c(N)nc1cc(-c3cccs3)ccc12 [Example 130] | > 100 µM | 0.64 µM | > 100 µM |  |
| Nc1nc2cc(-n3cccn3)ccc2c2cn(CCNC(=O)c3ccccc3)nc12 [Example 132, N-{2-[4-amino-7-(1H-pyrazol-1-yl)-2H-pyrazolo[3,4-c]quinolin-2-yl]ethyl}benzamide] | 20 to 100 µM |  | > 100 µM | 0.34 µM |
| Nc1nc2cc(-n3cccn3)ccc2c2cn(CCNC(=O)c3ccccn3)nc12 [Example 133, N-{2-[4-amino-7-(1H-pyrazol-1-yl)-2H-pyrazolo[3,4-c]quinolin-2-yl]ethyl}pyridine-2-carboxamide] | > 100 µM | 0.3 µM | > 100 µM |  |
| Nc1nc2cc(-c3ccn[nH]3)ccc2c2oc(CCCO)nc12 [Example 147, 3-[4-amino-7-(1H-pyrazol-3-yl)-[1,3]oxazolo[4,5-c]quinolin-2-yl]propan-1-ol] | > 100 µM |  | > 100 µM | 6.09 µM |
| NCCn1cc2c(N)nc3cc(-c4cc[nH]n4)ccc3c2n1 [Example 149, 2-(2-aminoethyl)-7-(1H-pyrazol-3-yl)-2H-pyrazolo[4,3-c]quinolin-4-amine] | > 100 µM | 0.38 µM | > 100 µM |  |
| Nc1nc2cc(-c3cc[nH]n3)ccc2c2nn(CCNC(=O)c3ccccn3)cc12 [Example 150, N-{2-[4-amino-7-(1H-pyrazol-3-yl)-2H-pyrazolo[4,3-c]quinolin-2-yl]ethyl}pyridine-2-carboxamide] | > 100 µM | 0.07 µM | > 100 µM |  |
| Nc1nc2cc(-c3cc[nH]n3)ccc2c2nn(CCNC(=O)c3csc(Cl)n3)cc12 [Example 151, N-{2-[4-amino-7-(1H-pyrazol-3-yl)-2H-pyrazolo[4,3-c]quinolin-2-yl]ethyl}-2-chloro-1,3-thiazole-4-carboxamide] | > 100 µM | 0.06 µM | > 100 µM |  |

Second part, led by results:

| EC50 (TLR8) | EC50 (THP-1 cells; [1]) | EC50 (TLR7) | Structure (SMILES) | EC50 (THP-1 cells; [2]) |
| --- | --- | --- | --- | --- |
| > 100 µM | 0.36 µM | > 100 µM | Cc1nc(C(=O)NCCn2cc3c(n2)c(N)nc2cc(-c4cccs4)ccc23)co1 [Example 128, N-{2-[4-amino-7-(thiophen-2-yl)-2H-pyrazolo[3,4-c]quinolin-2-yl]ethyl}-2-methyl-1,3-oxazole-4-carboxamide] |  |
| > 100 µM | 0.61 µM | > 100 µM | Nc1nc2cc(-c3cccs3)ccc2c2cn(CCNC(=O)c3ccccn3)nc12 [Example 131] |  |
| > 100 µM | 0.37 µM | 20 to 100 µM | COC(=O)NCc1nc2c(N)nc3cc(-c4ccn[nH]4)ccc3c2s1 [Example 134, methyl N-[[4-amino-7-(1H-pyrazol-5-yl)-[1,3]thiazolo[4,5-c]quinolin-2-yl]methyl]carbamate] |  |
| > 100 µM | 0.98 µM | > 100 µM | Nc1nc2cc(-c3ccn[nH]3)ccc2c2sc(CCNC(=O)c3ccccc3)nc12 [Example 135, N-(2-(4-amino-7-(1H-pyrazol-5-yl)thiazolo[4,5-c]quinolin-2-yl)ethyl) benzamide] |  |
| > 100 µM | 0.16 µM | 20 to 100 µM | Nc1nc2cc(-c3ccn[nH]3)ccc2c2sc(CCNC(=O)c3ccccn3)nc12 [Example 136, N-[2-[4-amino-7-(1H-pyrazol-5-yl)-[1,3]thiazolo[4,5-c]quinolin-2-yl]ethyl]pyridine-2-carboxamide] |  |
| > 100 µM | 1.67 µM | > 100 µM | Nc1nc2cc(-c3ccn[nH]3)ccc2c2sc(CCNC(=O)C3CCO3)nc12 (stereo not drawn) [Example 137, N-[2-[4-amino-7-(1H-pyrazol-5-yl)-[1,3]thiazolo[4,5-c]quinolin-2-yl]ethyl]oxetane-2-carboxamide] |  |
| > 100 µM | 3.92 µM | > 100 µM | NCCCc1nc2c(N)nc3cc(-c4ccn[nH]4)ccc3c2s1 [Example 138] |  |
| > 100 µM | 7.8 µM | > 100 µM | CC(=O)NCCCc1nc2c(N)nc3cc(-c4ccn[nH]4)ccc3c2s1 [Example 139, N-[3-[4-amino-7-(1H-pyrazol-5-yl)-[1,3]thiazolo[4,5-c]quinolin-2-yl]propyl]acetamide] |  |
| > 100 µM | 1.65 µM | > 100 µM | CCN(Cc1nc2c(N)nc3cc(-c4ccn[nH]4)ccc3c2s1)C(C)=O [Example 140, N-{[4-amino-7-(1H-pyrazol-3-yl)-[1,3]thiazolo[4,5-c]quinolin-2-yl]methyl}-N-ethylacetamide] |  |
| ≤ 1 µM | 6.28 µM | > 100 µM | Nc1nc2cc(-c3ccn[nH]3)ccc2c2sc(CCCOCc3ccccc3)nc12 [Example 141, 2-[3-(benzyloxy)propyl]-7-(1H-pyrazol-3-yl)-[1,3]thiazolo[4,5-c]quinolin-4-amine] |  |
| 20 to 100 µM | 1.5 µM | > 100 µM | Nc1nc2cc(-c3ccn[nH]3)ccc2c2sc(CCCO)nc12 [Example 142, 3-[4-amino-7-(1H-pyrazol-3-yl)-[1,3]thiazolo[4,5-c]quinolin-2-yl]propan-1-ol] |  |
| > 100 µM | 0.4 µM | > 100 µM | CN(C)Cc1nc2c(N)nc3cc(-c4ccn[nH]4)ccc3c2s1 [Example 143, 2-[(dimethylamino)methyl]-7-(1H-pyrazol-5-yl)-[1,3]thiazolo[4,5-c]quinolin-4-amine] |  |
| > 100 µM | 0.66 µM | > 100 µM | CCN(CC)CCCc1nc2c(N)nc3cc(-c4ccn[nH]4)ccc3c2s1 [Example 144, 2-[3-(diethylamino)propyl]-7-(1H-pyrazol-5-yl)-[1,3]thiazolo[4,5-c]quinolin-4-amine] |  |
| > 100 µM | 2.74 µM | > 100 µM | CN(C)Cc1nc2c(N)nc3cc(-c4ccn[nH]4)ccc3c2o1 [Example 145, 2-[(dimethylamino)methyl]-7-(1H-pyrazol-5-yl)-[1,3]oxazolo[4,5-c]quinolin-4-amine] |  |
